Assays:
[1] = system: liver dysfunction (hepatitis) induced by D-galactosamine; assay: Experiment I: effect on the liver dysfunction (hepatitis) induced by D-galactosamine, test compound administered into the abdominal cavity; format: in vivo, Rats of the SD series; settings: D-galactosamine hydrochloride 250 mg/Kg
Protocol: The effect on the liver dysfunction (hepatitis) induced by D-galactosamine by administration into the abdominal cavity was examined.
(§1) Rats of the SD series having a body weight of about 250 g were used as test animals. D-Galactosamine hydrochloride (250 mg/Kg each time) and the test compound (50 mg/Kg each time) were administered into the abdominal cavity according to the schedule described below. After termination of the experiment, blood was collected from the test animals, and the GOT value, GPT value and alkali phosphatase value, which are indicators of the degree of the liver dysfunction, were measured.
(§2) The test compound was suspended in a 5% aqueous solution of gum arabic and was administered in the form of the suspension. D-Galactosamine hydrochloride was dissolved in distilled water, the pH value of the solution was adjusted to 7 by potassium hydroxide and the resulting solution was administered. The test compound was administered to a group consisting of 9 rats, and in place of the test compound, a 5% aqueous solution of gum arabic free of the test compound was administered to a control group consisting of 14 rats. Neither the test compound nor D-galactosamine hydrochloride was administered to a normal group consisting of 9 rats.
(§3) Administration Schedule: [formula]

[2] = system: liver dysfunction (hepatitis) induced by D-galactosamine; assay: Experiment II: effect on the liver dysfunction (hepatitis) induced by D-galactosamine, oral administration; format: in vivo, Rats of the SD series; settings: Tables 3 and 4, 400 mg/Kg each time, D-galactosamine hydrochloride 200 mg/Kg hypodermically; for GPT Value: normal 34.8 ± 1.9, control 395.7 ± 49.3; for Alkali Phosphatase Value: normal 49.3 ± 4.4, control 67.4 ± 2.9; for GOT Value: normal 129.4 ± 12.6, control 573.7 ± 59.1
Protocol: as §1, §2
The effect on the liver dysfunction (hepatitis) induced by D-galactosamine by oral administration was examined.
D-galactosamine hydrochloride (200 mg/Kg each time) was hypodermically administered, and the test compound (400 mg/Kg each time) was orally administered. The test compound-administered group consisted of 9 rats, the control group consisted of 14 rats, and the normal group consisted of 8 rats. The administration schedule was as follows.
as §3
Other test conditions were the same as in Experiment I.

[3] = system: rats of the Wistar series; settings: rat, in vivo, po, 4000 mg/kg
Protocol: The compounds C, D, I and M were separately suspended in 5% aqueous solutions of gum arabic and the test composition were orally administered to rats of the Wistar series at a dose of 4000 mg/Kg.

[4] = Table 1, 50 mg/Kg each time, normal 32.3 ± 3.3, control 94.2 ± 6.9
[5] = Table 1, 50 mg/Kg each time, normal 33.1 ± 2.3, control 509 ± 94
[6] = Table 1, 50 mg/Kg each time, normal 127.0 ± 6.1, control 751 ± 130
[7] = Table 2, 50 mg/Kg each time, normal 39.0 ± 2.4, control 992.3 ± 121.2
[8] = Table 2, 50 mg/Kg each time, normal 48.9 ± 4.7, control 125.7 ± 4.9
[9] = Table 2, 50 mg/Kg each time, normal 129.9 ± 10.1, control 1081.8 ± 90.3

Row | SMILES | Alkali Phosphatase Value [1, 4] [KA unit] | GPT Value [1, 5] [carmen unit] | GOT Value [1, 6] [carmen unit] | GPT Value [2] [carmen unit] | Alkali Phosphatase Value [2] [KA unit] | GOT Value [2] [carmen unit] | death of rats [3] | GPT Value [1, 7] [carmen unit] | Alkali Phosphatase Value [1, 8] [KA unit] | GOT Value [1, 9] [carmen unit]
1 | CC(C)CCCC(C)CCCC(C)CC(=O)N1CCOCC1 (stereo not shown) [compound A, 4-(3,7,11-trimethyldodecanoyl)morpholine] | 31.9 ± 1.8 | 46.8 ± 11 | 257.4 ± 31 | 62.1 ± 10.7 | 64.1 ± 4.6 | 193.0 ± 18.5 |  |  |  | 
2 | CC(C)=CCC/C(C)=C/CCC(C)CC(=O)N1CCOCC1 (stereo not shown) [compound B, 4-[(E)-3,7,11-trimethyl-6,10-dodecadienoyl]morpholine] | 40.2 ± 2.4 | 50.4 ± 16 | 316 ± 27 | 67.4 ± 7.3 | 62.9 ± 4.9 | 233.3 ± 22.2 |  |  |  | 
3 | CC(C)CCCC(C)CCCC(C)CCCC(C)CC(=O)N1CCOCC1 (stereo not shown) [compound C, 4-(3,7,11,15-tetramethylhexadecanoyl)morpholine] | 23.5 ± 1.8 | 40 ± 13 | 352 ± 34 | 122.0 ± 16.1 | 46.7 ± 4.0 | 231.1 ± 26.4 | None of the rats died |  |  | 
4 | CC(C)=CCC/C(C)=C/CC/C(C)=C/CCC(C)CC(=O)N1CCOCC1 (stereo not shown) [compound D, 4-[(E,E)-3,7,11,15-tetramethyl-6,10,14-hexadecatrienoyl]morpholine] | 28.5 ± 2.0 | 94 ± 39 | 430 ± 58 | 58.8 ± 5.5 | 53.1 ± 5.6 | 84.8 ± 8.9 | None of the rats died |  |  | 
5 | CC(C)=CCC/C(C)=C/CC/C(C)=C/CCC(C)CC(N)=O (stereo not shown) [compound E, (E,E)-3,7,11,15-tetramethyl-6,10,14-hexadecatrienamide] | 32.1 ± 2.6 | 64 ± 15 | 425 ± 24 |  |  |  |  |  |  | 
6 | CC(C)=CCC/C(C)=C/CC/C(C)=C/CCC(C)CC(=O)N(C)C (stereo not shown) [compound F, (E,E)-N,N-dimethyl-3,7,11,15-tetramethyl-6,10,14-hexadecatrienamide] | 28.0 ± 2.4 | 90 ± 44 | 400 ± 75 |  |  |  |  |  |  | 
7 | CC(C)=CCC/C(C)=C/CC/C(C)=C/CCC(C)CC(=O)N1CCN(CCO)CC1 (stereo not shown) [compound G, 1-[(E,E)-3,7,11,15-tetramethyl-6,10,14-hexadecatrienoyl]-4-(2-hydroxyethyl)piperazine] | 29.6 ± 2.3 | 84 ± 17 | 414 ± 49 |  |  |  |  |  |  | 
8 | CC(=CC(=O)N1CCOCC1)CCCC(C)CCCC(C)C (stereo not shown) [compound H, 4-(3,7,11-trimethyl-2-dodecaenoyl)morpholine] |  |  |  |  |  |  |  | 511.3 ± 173.7 | 49.0 ± 1.9 | 732.1 ± 147.3
9 | CC(=CC(=O)N1CCOCC1)CCCC(C)CCCC(C)CCCC(C)C (stereo not shown) [compound I, 4-(3,7,11,15-tetramethyl-2-hexadecaenoyl)morpholine] |  |  |  | 154.9 ± 21.5 | 44.31 ± 3.1 | 284.9 ± 36.4 | None of the rats died | 135.3 ± 46.4 | 35.4 ± 5.2 | 659.3 ± 72.5
10 | CC(C)=CCCC(C)=CCCC(C)=CCCC(C)=CC(N)=O [compound J, 3,7,11,15-tetramethyl-2,6,10,14-hexadecatetraenamide] |  |  |  |  |  |  |  | 314.5 ± 65.9 | 49.9 ± 3.0 | 617.0 ± 50.5
11 | CC(C)=CCCC(C)=CCCC(C)=CCCC(C)=CC(=O)N(C)C [compound K, N,N-dimethyl-3,7,11,15-tetramethyl-2,6,10,14-hexadecatetraenamide] |  |  |  |  |  |  |  | 193.8 ± 38.1 | 45.2 ± 1.8 | 586.0 ± 56.5
12 | CC(C)=CCCC(C)=CCCC(C)=CCCC(C)=CC(=O)N1CCN(CCO)CC1 [compound L, 1-(3,7,11,15-tetramethyl-2,6,10,14-hexadecatetraenoyl)-4-(2-hydroxyethyl)piperazine] |  |  |  |  |  |  |  | 138.1 ± 16.9 | 42.8 ± 1.8 | 451.7 ± 37.9
13 | CC(C)=CCCC(C)=CCCC(C)=CCCC(C)=CC(=O)N1CCOCC1 [compound M, 4-(3,7,11,15-tetramethyl-2,6,10,14-hexadecatetraenoyl)morpholine] |  |  |  | 58.9 ± 7.3 | 59.4 ± 4.9 | 178.4 ± 10.3 | None of the rats died |  |  | 
